Measured values reported in paper PMC5896373 (Molecular Pharmacology, 2018).
Changes are numbered by the printed parent chain.

What was measured:
[1] = biological target: T1, P2X7R point mutant S86A (Homo sapiens, UniProt Q99572, I21V/M24R/N16P/N25R/Q22R/R20V/S23N/S86A/T19I/Y26L); assay: Two-electrode voltage clamp of ATP-evoked currents in Xenopus oocytes; assay type: cell-based; details: EC90 ATP, mean ± S.E.M.
T1 construct: expressed in transfected cells; host or cells: Xenopus laevis oocytes (cRNA injection)
Method: (§1) Additional point mutants were made using the QuikChange mutagenesis kit (Stratagene California, La Jolla, CA). The production of the correct mutations and absence of coding errors was determined by DNA sequencing (Automated ABI Sequencing Service, University of Leicester, UK). cRNA was generated for the mutants and 50 nl (50 ng) was injected into manually defoliculated stage V Xenopus laevis oocytes using an Inject+Matic microinjector (J.A. Gabay, Inject+Matic, Geneva, Switzerland). Injected oocytes were stored at 16°C in ND96 buffer [in millimolar concentrations, NaCl 96, KCl 2, CaCl2 1.8, MgCl2 1, sodium pyruvate 5, and HEPES 5 (pH 7.6) supplemented with 50 μg/ml gentamycin and 50 μg/ml tetracycline]. Three to seven days postinjection two-electrode voltage clamp recordings were made from oocytes bathed in divalent-free ND96 buffer (in millimolar concentrations, NaCl 96, KCl 2, sodium pyruvate 5, HEPES 5, and 0.1 flufenamic acid, pH 7.6). Oocytes were voltage clamped at a holding potential of −60 mV with a GeneClamp500B amplifier (Molecular Devices).
(§2) Inhibition by the antagonists was expressed as the percentage of the peak current amplitude of an EC90 concentration of ATP recorded before the application of antagonist (ATP gave reproducible responses to ATP in the absence of antagonist). […]

[2] = biological target: T2, P2X7R point mutant L97P (Homo sapiens, UniProt Q99572, I21V/L97P/M24R/N16P/N25R/Q22R/R20V/S23N/T19I/Y26L); assay: cell-based
T2 construct: expressed in transfected cells; host or cells: Xenopus laevis oocytes (cRNA injection)
Method: (§3) The production of the correct mutations and absence of coding errors was determined by DNA sequencing (Automated ABI Sequencing Service, University of Leicester, UK). cRNA was generated for the mutants and 50 nl (50 ng) was injected into manually defoliculated stage V Xenopus laevis oocytes using an Inject+Matic microinjector (J.A. Gabay, Inject+Matic, Geneva, Switzerland). Injected oocytes were stored at 16°C in ND96 buffer [in millimolar concentrations, NaCl 96, KCl 2, CaCl2 1.8, MgCl2 1, sodium pyruvate 5, and HEPES 5 (pH 7.6) supplemented with 50 μg/ml gentamycin and 50 μg/ml tetracycline]. Three to seven days postinjection two-electrode voltage clamp recordings were made from oocytes bathed in divalent-free ND96 buffer (in millimolar concentrations, NaCl 96, KCl 2, sodium pyruvate 5, HEPES 5, and 0.1 flufenamic acid, pH 7.6). Oocytes were voltage clamped at a holding potential of −60 mV with a GeneClamp500B amplifier (Molecular Devices).
(§4) Inhibition by the antagonists was expressed as the percentage of the peak current amplitude of an EC90 concentration of ATP recorded before the application of antagonist (ATP gave reproducible responses to ATP in the absence of antagonist). Inhibition curves were fitted with the Hill equation (variable slope) using GraphPad Prism 6 (GraphPad Software, San Diego, CA). […]

[3] = biological target: T3, P2X7R point mutant I310A (Homo sapiens, UniProt Q99572, I21V/I310A/M24R/N16P/N25R/Q22R/R20V/S23N/T19I/Y26L); assay: Two-electrode voltage clamp of ATP-evoked currents in Xenopus oocytes; assay type: cell-based; details: EC90 ATP, mean ± S.E.M.
T3 construct: expressed in transfected cells; host or cells: Xenopus laevis oocytes (cRNA injection)
Method: (§5) Injected oocytes were stored at 16°C in ND96 buffer [in millimolar concentrations, NaCl 96, KCl 2, CaCl2 1.8, MgCl2 1, sodium pyruvate 5, and HEPES 5 (pH 7.6) supplemented with 50 μg/ml gentamycin and 50 μg/ml tetracycline]. Three to seven days postinjection two-electrode voltage clamp recordings were made from oocytes bathed in divalent-free ND96 buffer (in millimolar concentrations, NaCl 96, KCl 2, sodium pyruvate 5, HEPES 5, and 0.1 flufenamic acid, pH 7.6). Oocytes were voltage clamped at a holding potential of −60 mV with a GeneClamp500B amplifier (Molecular Devices).
(§6) Inhibition by the antagonists was expressed as the percentage of the peak current amplitude of an EC90 concentration of ATP recorded before the application of antagonist (ATP gave reproducible responses to ATP in the absence of antagonist). Inhibition curves were fitted with the Hill equation (variable slope) using GraphPad Prism 6 (GraphPad Software, San Diego, CA). […] Individual concentration-response curves were generated for individual experiments, and statistical analysis was carried out on the data generated. […] Data are shown as mean ± S.E.M. In all cases n ≥ 3 for all data points.

[4] = biological target: T4, P2X7R point mutant K297G (Homo sapiens, UniProt Q99572, I21V/K297G/M24R/N16P/N25R/Q22R/R20V/S23N/T19I/Y26L); assay: as above; assay type: cell-based; details: EC90 ATP, mean ± S.E.M.
T4 construct: expressed in transfected cells; host or cells: Xenopus laevis oocytes (cRNA injection)
Method: as §1, §2

[5] = biological target: T5, P2X7R point mutant F95A (Homo sapiens, UniProt Q99572, F95A/I21V/M24R/N16P/N25R/Q22R/R20V/S23N/T19I/Y26L); assay: cell-based
T5 construct: expressed in transfected cells; host or cells: Xenopus laevis oocytes (cRNA injection)
Method: as §5, §6

[6] = biological target: T6, P2X7R point mutant P96A (Homo sapiens, UniProt Q99572, I21V/M24R/N16P/N25R/P96A/Q22R/R20V/S23N/T19I/Y26L); assay: Two-electrode voltage clamp of ATP-evoked currents in Xenopus oocytes; assay type: cell-based; details: EC90 ATP, mean ± S.E.M.
T6 construct: expressed in transfected cells; host or cells: Xenopus laevis oocytes (cRNA injection)
Method: as §5, §6

[7] = tested on: P2X7R left flipper point mutant N284A; assay: as above; assay type: cell-based, human
Method: as §3, §4

[8] = biological target: T7, chimeric P2X7R with left flipper 280–284 of P2X4 (Homo sapiens, UniProt Q99572, D280T/I21V/K281R/M24R/N16P/N25R/N284E/Q22R/R20V/S23N/T19I/T282D/T283V/Y26L); details: chimera 280–284 of P2X4
T7 sequence (Q99572 1-595 N16P/T19I/R20V/I21V/Q22R/S23N/M24R/N25R/Y26L/D280T/K281R/T282D/T283V/N284E): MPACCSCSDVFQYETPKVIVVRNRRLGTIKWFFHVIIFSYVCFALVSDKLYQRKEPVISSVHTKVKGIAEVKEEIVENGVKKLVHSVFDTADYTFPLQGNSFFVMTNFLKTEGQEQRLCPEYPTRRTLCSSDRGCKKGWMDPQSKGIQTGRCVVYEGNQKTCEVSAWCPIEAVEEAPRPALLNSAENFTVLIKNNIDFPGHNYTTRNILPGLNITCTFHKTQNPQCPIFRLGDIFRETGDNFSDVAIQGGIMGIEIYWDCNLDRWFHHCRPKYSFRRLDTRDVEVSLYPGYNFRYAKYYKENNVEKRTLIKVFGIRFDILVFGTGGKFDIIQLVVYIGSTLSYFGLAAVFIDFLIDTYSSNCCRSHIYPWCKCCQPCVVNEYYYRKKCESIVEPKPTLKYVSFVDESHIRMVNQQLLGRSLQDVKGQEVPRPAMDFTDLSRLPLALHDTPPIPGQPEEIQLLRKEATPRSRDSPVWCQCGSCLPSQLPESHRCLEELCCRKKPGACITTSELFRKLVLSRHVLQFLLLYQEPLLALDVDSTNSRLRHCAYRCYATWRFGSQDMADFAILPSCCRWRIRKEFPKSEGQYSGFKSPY
Method: as §3, §6

[9] = biological target: T8, chimeric P2X7/1 receptor 279–285 (left flipper) (Homo sapiens, UniProt Q99572, DEL279-281/I21V/M24R/N16P/N25R/N284E/Q22R/R20V/S23N/T19I/T282Y/T283E/V285K/Y26L); set-up: method as in Allsopp et al., 2017; details: chimera 279–285; ref Allsopp et al., 2017; cited from earlier work
T8 construct: expressed in transfected cells; host or cells: Xenopus laevis oocytes (cRNA injection)
T8 sequence (Q99572 with tags, fused parts or gaps N16P/T19I/R20V/I21V/Q22R/S23N/M24R/N25R/Y26L/DEL279-281/T282Y/T283E/N284E/V285K): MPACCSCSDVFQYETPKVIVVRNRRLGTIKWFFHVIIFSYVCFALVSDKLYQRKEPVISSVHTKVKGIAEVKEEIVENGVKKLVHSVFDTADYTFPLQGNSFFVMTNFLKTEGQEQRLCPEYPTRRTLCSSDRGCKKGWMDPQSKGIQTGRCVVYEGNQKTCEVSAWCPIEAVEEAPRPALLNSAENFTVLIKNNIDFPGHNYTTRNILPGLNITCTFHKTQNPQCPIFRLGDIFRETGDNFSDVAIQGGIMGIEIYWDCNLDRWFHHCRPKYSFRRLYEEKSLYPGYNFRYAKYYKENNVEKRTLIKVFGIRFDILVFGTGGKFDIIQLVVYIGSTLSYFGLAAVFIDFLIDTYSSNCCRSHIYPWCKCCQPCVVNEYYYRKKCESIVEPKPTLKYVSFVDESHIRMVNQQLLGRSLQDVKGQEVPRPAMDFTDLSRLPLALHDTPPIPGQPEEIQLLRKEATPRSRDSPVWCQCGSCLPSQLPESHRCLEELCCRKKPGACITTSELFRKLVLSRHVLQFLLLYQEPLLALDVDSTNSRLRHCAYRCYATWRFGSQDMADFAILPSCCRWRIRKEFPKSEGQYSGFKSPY

[10] = biological target: T9, P2X7R point mutant K110Y (Homo sapiens, UniProt Q99572, I21V/K110Y/M24R/N16P/N25R/Q22R/R20V/S23N/T19I/Y26L); set-up: method as in Allsopp et al., 2017; details: ref Allsopp et al., 2017; cited from earlier work
T9 construct: expressed in transfected cells; host or cells: Xenopus laevis oocytes (cRNA injection)
T9 sequence (Q99572 1-595 N16P/T19I/R20V/I21V/Q22R/S23N/M24R/N25R/Y26L/K110Y): T7 sequence (Q99572 1-595 N16P/T19I/R20V/I21V/Q22R/S23N/M24R/N25R/Y26L/D280T/K281R/T282D/T283V/N284E) with K110Y, T280D, R281K, D282T, V283T, E284N

[11] = biological target: T10, hP2X1R (Homo sapiens, UniProt P51575); assay: Two-electrode voltage clamp of ATP-evoked currents in Xenopus oocytes; assay type: cell-based
T10 construct: expressed in transfected cells; host or cells: Xenopus laevis oocytes (cRNA injection)
T10 sequence (P51575 whole entry): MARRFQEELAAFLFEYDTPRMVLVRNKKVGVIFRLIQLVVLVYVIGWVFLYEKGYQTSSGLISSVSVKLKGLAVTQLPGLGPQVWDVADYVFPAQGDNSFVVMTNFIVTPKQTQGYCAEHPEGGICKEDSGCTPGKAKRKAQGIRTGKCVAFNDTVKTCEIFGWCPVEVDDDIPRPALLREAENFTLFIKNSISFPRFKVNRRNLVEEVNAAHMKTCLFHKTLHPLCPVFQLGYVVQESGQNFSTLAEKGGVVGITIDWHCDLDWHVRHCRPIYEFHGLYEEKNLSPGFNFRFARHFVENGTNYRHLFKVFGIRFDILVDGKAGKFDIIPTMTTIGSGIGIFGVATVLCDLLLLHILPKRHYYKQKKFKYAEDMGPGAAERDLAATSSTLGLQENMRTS

T1 sequence (Q99572 whole entry N16P/T19I/R20V/I21V/Q22R/S23N/M24R/N25R/Y26L/S86A): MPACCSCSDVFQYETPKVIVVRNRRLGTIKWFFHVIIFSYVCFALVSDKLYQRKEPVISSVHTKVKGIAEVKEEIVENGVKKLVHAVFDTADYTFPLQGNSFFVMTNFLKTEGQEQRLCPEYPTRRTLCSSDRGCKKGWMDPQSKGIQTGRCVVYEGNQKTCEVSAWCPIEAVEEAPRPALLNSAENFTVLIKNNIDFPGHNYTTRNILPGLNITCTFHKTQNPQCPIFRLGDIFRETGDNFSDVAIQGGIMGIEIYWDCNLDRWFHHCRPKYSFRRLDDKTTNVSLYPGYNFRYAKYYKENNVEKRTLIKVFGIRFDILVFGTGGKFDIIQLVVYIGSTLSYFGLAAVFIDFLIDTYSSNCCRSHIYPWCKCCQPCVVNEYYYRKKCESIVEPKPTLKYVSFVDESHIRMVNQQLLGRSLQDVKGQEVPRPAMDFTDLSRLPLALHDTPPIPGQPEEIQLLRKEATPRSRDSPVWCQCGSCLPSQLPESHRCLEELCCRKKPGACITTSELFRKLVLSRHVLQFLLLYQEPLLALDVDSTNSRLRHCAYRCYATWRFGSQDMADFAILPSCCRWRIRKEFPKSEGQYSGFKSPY
T5 sequence (Q99572 whole entry N16P/T19I/R20V/I21V/Q22R/S23N/M24R/N25R/Y26L/F95A): as the sequence (Q99572 whole entry N16P/T19I/R20V/I21V/Q22R/S23N/M24R/N25R/Y26L/S86A) above, with A86S, F95A counted along it
T3 sequence (Q99572 whole entry N16P/T19I/R20V/I21V/Q22R/S23N/M24R/N25R/Y26L/I310A): as the sequence (Q99572 whole entry N16P/T19I/R20V/I21V/Q22R/S23N/M24R/N25R/Y26L/S86A) above, with A86S, I310A counted along it
T6 sequence (Q99572 whole entry N16P/T19I/R20V/I21V/Q22R/S23N/M24R/N25R/Y26L/P96A): as the sequence (Q99572 whole entry N16P/T19I/R20V/I21V/Q22R/S23N/M24R/N25R/Y26L/S86A) above, with A86S, P96A counted along it
T4 sequence (Q99572 whole entry N16P/T19I/R20V/I21V/Q22R/S23N/M24R/N25R/Y26L/K297G): as the sequence (Q99572 whole entry N16P/T19I/R20V/I21V/Q22R/S23N/M24R/N25R/Y26L/S86A) above, with A86S, K297G counted along it
T2 sequence (Q99572 whole entry N16P/T19I/R20V/I21V/Q22R/S23N/M24R/N25R/Y26L/L97P): as the sequence (Q99572 whole entry N16P/T19I/R20V/I21V/Q22R/S23N/M24R/N25R/Y26L/S86A) above, with A86S, L97P counted along it

| Compound | IC50 [1] | IC50 [2] | IC50 [3] | IC50 [4] | IC50 [5] | IC50 [6] | effect on antagonist sensitivity relative to P2X7-2Nβ [7] | fold decrease in antagonist sensitivity relative to P2X7-2Nβ [8] | effect on antagonist sensitivity [9] | effect on antagonist sensitivity [10] | inhibition of ATP (EC90)-evoked currents [11] |
| --- | --- | --- | --- | --- | --- | --- | --- | --- | --- | --- | --- |
| COc1ccc(CC(=O)NC(N=C(NC#N)Nc2cccc3ncccc23)C(C)(C)C)cc1OC (stereo not shown) [A740003, N-[1-[[(cyanoamino)(5-quinolinylamino)methylene]amino]-2,2-dimethylpropyl]-3,4-dimethoxybenzeneacetamide] | 79.4 nM | 398 nM | 126 nM | 12.6 nM | 1000 nM | 316 nM | no effect | ~10 fold | – | – | – |
| Cl.Cl.O=C(CC12CC3CC(CC(C3)C1)C2)Nc1cccc2nc(NCCNCCO)ccc12 [AZ10606120, N-[2-[[2-[(2-hydroxyethyl)amino]ethyl]amino]-5-quinolinyl]-2-tricyclo[3.3.1.13,7]dec-1-ylacetamide dihydrochloride] | – | – | – | – | – | – | – | – | no effect | increased | – |
| Cl.Clc1cccc(-c2nnnn2Cc2cccnc2)c1Cl.O [A438079, 3-(5-(2,3-dichlorophenyl)-1H-tetrazol-1-yl)methyl pyridine hydrochloride hydrate] | 1000 nM | – | 6310 nM | 50.1 nM | > 100000 nM | 12600 nM | – | – | – | – | ineffective |
